Experiment [1] concerns the target T1, human argininosuccinate synthetase (ASS1) (Homo sapiens, UniProt P00966).
T1 sequence (P00966 1-412): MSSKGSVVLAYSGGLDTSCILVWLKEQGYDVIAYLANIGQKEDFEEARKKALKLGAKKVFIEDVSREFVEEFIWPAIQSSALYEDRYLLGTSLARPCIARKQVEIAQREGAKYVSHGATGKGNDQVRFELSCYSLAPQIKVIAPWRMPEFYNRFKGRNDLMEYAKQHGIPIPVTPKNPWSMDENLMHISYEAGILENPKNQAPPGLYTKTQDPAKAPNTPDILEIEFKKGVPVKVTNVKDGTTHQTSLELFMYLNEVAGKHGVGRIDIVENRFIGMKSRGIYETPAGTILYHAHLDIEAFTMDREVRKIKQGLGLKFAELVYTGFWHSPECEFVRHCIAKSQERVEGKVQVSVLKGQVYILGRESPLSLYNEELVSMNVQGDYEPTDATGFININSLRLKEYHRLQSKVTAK
Nature of the experiment: differential scanning fluorimetry. The experiment is classed as binding. To be noted: 5 mM ATP, 10 mM MgCl2, pH 8.0. (In general: DSF heats the sample and reads unfolding from a dye or from intrinsic fluorescence.)

The target of experiment [2] is T2, human asparagine synthetase (ASNS) (Homo sapiens, UniProt P08243).
T2 sequence (P08243 2-561): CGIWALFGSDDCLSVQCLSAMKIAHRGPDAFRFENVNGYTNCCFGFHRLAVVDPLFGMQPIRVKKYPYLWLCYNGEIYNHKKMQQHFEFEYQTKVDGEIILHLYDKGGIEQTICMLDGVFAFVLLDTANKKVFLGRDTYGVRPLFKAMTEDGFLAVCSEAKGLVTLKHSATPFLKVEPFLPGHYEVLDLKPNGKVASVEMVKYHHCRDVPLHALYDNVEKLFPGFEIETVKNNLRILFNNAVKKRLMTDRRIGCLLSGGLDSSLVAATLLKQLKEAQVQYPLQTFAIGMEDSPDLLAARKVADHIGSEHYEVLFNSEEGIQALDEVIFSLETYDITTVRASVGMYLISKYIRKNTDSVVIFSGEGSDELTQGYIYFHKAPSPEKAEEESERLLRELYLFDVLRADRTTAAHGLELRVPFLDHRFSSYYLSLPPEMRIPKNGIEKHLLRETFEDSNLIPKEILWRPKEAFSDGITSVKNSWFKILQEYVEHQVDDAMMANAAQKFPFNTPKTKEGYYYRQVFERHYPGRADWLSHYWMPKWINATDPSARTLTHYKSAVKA
Nature of the experiment: HPLC end-point assay of L-asparagine formation. The format is biochemical.

Experiment [3] concerns the target T3, ASNS (endogenous, HEK-293A cells) (Homo sapiens, UniProt P08243).
T3 sequence (P08243 2-561): T2 sequence (P08243 2-561)
The experiment in a line: cellular thermal shift, immunoblot. The format is cell-based. To be noted: cells treated with 50 nM for 1 h, lysate heated 25-90 °C.

Among the data in publication doi:10.1101/2025.10.16.682859v2 (biorxiv, 2025) are Tm and IC50 values, retold here.

The term IC50 denotes the concentration that gives 50% inhibition. Read a high IC50 as weaker potency in that assay.

`Nc1ncnc2c1ncn2[C@@H]1O[C@H](COP(=O)(O)OP(=O)(O)OP(=O)(O)O)[C@@H](O)[C@H]1O` [ATP]: the Tm in experiment [1] was 47 to 52 °C.
For `CC[C@H](N)C(=O)N1C[C@@H](c2ccc(F)cc2)[C@H](O)[C@@H]1C(=O)NC(c1ccccc1)c1ccccc1` [compound 17, ASX-173], in experiment [2], the half-maximal inhibitory concentration (IC50) is 500 ± 200 nM. The Tm in experiment [3] fell in the range of 45 to 54 °C.
